Measured values reported in article PMC6804006, “Synthesis, Biological Activities and Docking Studies of Novel 4-(Arylaminomethyl)benzamide Derivatives as Potential Tyrosine Kinase Inhibitors” (Molecules, 2019).
Each block holds one compound with its values, some of them ahead of it.

Legend:
[1] = tested on: K-562 (chronic myelogenous leukemia); assay: MTT anti-proliferative assay, K-562; assay type: cell-based; conditions: Homo sapiens, K562, 48 h, 50% growth inhibition
Method: (§1) Each in vitro experiment was performed at least in triplicate, and the standard deviation of absorbance was less than 10% of the mean. For the in vitro assays, a stock solution (1% DMSO in the appropriate buffer with the tested compound diluted under sonication) was prepared from which several dilutions were made with the appropriate buffer.
(§2) Human cell lines were obtained from the Institute of Cytology, Russian Academy of Sciences. […] Cellular sensitivities to clofarabine and its lipid derivatives were measured with the MTT assay. Cells were plated in triplicate in 96-well plates (10^5 cells/well for suspended cell cultures and 5 × 10^3 cells/well for monolayer cultures); on the same day (suspended cell cultures) or on the following day (monolayer cultures), compounds were added at the appropriate dilutions. Plates were incubated under standard conditions for 48 h. Thereafter, 10 μL of MTT (Sigma) in phosphate-buffered saline (5 mg/mL) was added. The plates were incubated for an additional 4 h, and 150 μL of dimethyl sulfoxide (DMSO) was added to dissolve the formazan crystals. The optical density was read on a HALO MPR-95 Microplate Reader (Dynamica Scientific Ltd., Australia) at 570 nm. The antiproliferative effects were determined as degrees of inhibition of tumor cells (%).

[2] = tested on: HL-60 (promyelocytic leukemia); assay: MTT anti-proliferative assay, HL-60; assay type: cell-based, human; conditions: 50% growth inhibition
Method: as §1, §2

[3] = tested on: MCF-7 (breast adenocarcinoma); assay: MTT anti-proliferative assay, MCF-7; assay type: cell-based; conditions: Homo sapiens, MCF7, 48 h, 50% growth inhibition
Method: as §1, §2

[4] = tested on: HeLa (cervix carcinoma); assay: MTT anti-proliferative assay, HeLa; assay type: cell-based; conditions: Homo sapiens, 48 h, 50% growth inhibition
Method: as §1, §2

[5] = tested on: A549 (lung carcinoma); assay: MTT anti-proliferative assay, A-549; assay type: cell-based; conditions: Homo sapiens, 48 h, 50% growth inhibition
Method: as §1, §2

[6] = tested on: OKP-GS (carcinoma of the kidney); assay: MTT anti-proliferative assay, OKP-GS; assay type: cell-based; conditions: Homo sapiens, 48 h, 50% growth inhibition
Method: as §1, §2

[7] = tested on: RPMI 1788 (B lymphocyte, human normal cells); assay: MTT assay on normal cells RPMI 1788; assay type: cell-based; conditions: MTT 48 h
Method: as §1
Human cell lines were obtained from the Institute of Cytology, Russian Academy of Sciences. The cell lines studied were maintained in RPMI 1640 medium (AppliChem, Darmstadt, Germany) supplemented with 20% (HL-60, RPMI 1788) fetal calf serum (HyClone, Cramlington, UK), in DMEM (A 549) and Eagle’s MEM (AppliChem) (MCF7, HeLa) with 10% fetal calf serum (HyClone). Cells were cultivated at 37 °C in a humidified atmosphere of 5% CO2. Cellular sensitivities to clofarabine and its lipid derivatives were measured with the MTT assay. Cells were plated in triplicate in 96-well plates (10^5 cells/well for suspended cell cultures and 5 × 10^3 cells/well for monolayer cultures); on the same day (suspended cell cultures) or on the following day (monolayer cultures), compounds were added at the appropriate dilutions. Plates were incubated under standard conditions for 48 h. Thereafter, 10 μL of MTT (Sigma) in phosphate-buffered saline (5 mg/mL) was added. The plates were incubated for an additional 4 h, and 150 μL of dimethyl sulfoxide (DMSO) was added to dissolve the formazan crystals. The optical density was read on a HALO MPR-95 Microplate Reader (Dynamica Scientific Ltd., Australia) at 570 nm. The antiproliferative effects were determined as degrees of inhibition of tumor cells (%).

[8] = molecular target: T1, EGFR (Homo sapiens, UniProt P00533); assay: ADP-Glo kinase inhibitory assay, EGFR; assay type: biochemical; conditions: read-out: % Inhibition at 10 nM, EGFR
T1 construct: purchased Promega
Method: (§3) We investigated the kinase selectivity of targeted compounds against eight receptor tyrosine kinases including EGFR (epidermal growth factor receptor), HER-2 and HER4 (human epidermal growth factor receptor), IGF1R (insulin like growth factor 1 receptor), InsR (gene insulin receptor), KDR (kinase insert domain receptor), and PDGFRa and PDGFRb (platelet-derived growth factor receptors). The assay was performed using the Kinase-Glo Plus luminescence kinase assay kit (TK-1+ADP-Glo™, Promega, San Diego, CA, USA). It measures kinase activity by quantitating the amount of ATP remaining in solution following a kinase reaction.
(§4) The assay was performed using a Kinase Selectivity Profiling System (TK-1+ADP-Glo™ Assay and TK-2+ADP-Glo™ Assay, Promega), where the kinase activity was measured by quantifying the amount of ADP produced during a kinase reaction. The assay is performed in two steps; firstly, after the kinase reaction, an equal volume of ADP-Glo™ Reagent is added to terminate the kinase reaction and deplete the remaining ATP. Secondly, the Kinase Detection Reagent is added to simultaneously convert ADP to ATP and allow the newly synthesized ATP to be measured using a luciferase/luciferin reaction. The luminescent signal generated is proportional to the ADP concentration produced and is correlated with kinase activity. Our compounds were diluted with kinase buffer (5% DMSO), and 1 μL of the dilution was added to a 5-μL reaction so that the final concentration of DMSO was 1% in all of reactions. All of the enzymatic reactions were conducted at 23 °C for 60 min. The 5-μL reaction mixture contained 1µL of the compound solution, 2µL of the enzyme solution, and 2 µL of kinase substrate. After the enzymatic reaction, 5 µL of ADP-Glo™ Reagent (Promega, USA) was added to each reaction, and the plate was incubated for 40 min at 23 °C. Then, 10 µL of Kinase Detection Reagent (Promega, USA) was added to each reaction, and the plate was incubated for 30 min at 23 °C. Luminescence signal was measured using an Infinite M 200 plate reader (Tecan, Switzerland).
(§5) Kinase activity assays were performed in duplicate at each concentration. The luminescence data were analyzed using the computer software, Magellan™. The difference between luminescence intensities in the absence of Kinase (Lut) and in the presence of Kinase (Luc) was defined as 100% activity (Lut − Luc).

[9] = molecular target: T2, HER-2 (Homo sapiens, UniProt P04626); assay: ADP-Glo kinase inhibitory assay, HER-2; assay type: biochemical; conditions: read-out: % Inhibition at 10 nM, HER-2
T2 construct: purchased Promega
Method: as §3, §4, §5

[10] = molecular target: T3, HER-4 (Homo sapiens, UniProt Q15303); assay: ADP-Glo kinase inhibitory assay, HER-4; assay type: biochemical; conditions: for inhibition at 0.01 µM: read-out: % Inhibition at 10 nM, HER-4; for inhibitory activity in relation to HER-4, in words: 10 nM, compared with imatinib
T3 construct: purchased Promega
Method: as §3, §4, §5

[11] = molecular target: T4, IGF1R (Homo sapiens, UniProt P08069); assay: ADP-Glo kinase inhibitory assay, IGF1R; assay type: biochemical; conditions: read-out: % Inhibition at 10 nM, IGF1R
T4 construct: purchased Promega
Method: as §3, §4, §5

[12] = molecular target: T5, InsR (Homo sapiens, UniProt P06213); assay: ADP-Glo kinase inhibitory assay, InsR; assay type: biochemical; conditions: for selectivity for the gene insulin receptor, in words: 10 nM, panel of eight receptor tyrosine kinases; for inhibition at 0.01 µM: read-out: % Inhibition at 10 nM, InsR
T5 construct: purchased Promega
Method: as §3, §4, §5

[13] = molecular target: T6, KDR (VEGFR2) (Homo sapiens, UniProt P35968); assay: ADP-Glo kinase inhibitory assay, KDR; assay type: biochemical; conditions: 10 nM
T6 construct: purchased Promega
Method: as §3
Vascular endothelial growth factor receptor 2 (VEGFR2), also called kinase insert domain receptor (KDR), is a tyrosine kinase receptor for VEGFs that plays a central role in tumor angiogenesis; therefore, the inhibition of VEGFR2 is a promising therapeutic strategy for inhibiting angiogenesis and tumor growth.
as §4, §5

[14] = molecular target: T7, PDGFRa (Homo sapiens, UniProt P16234); assay: ADP-Glo kinase inhibitory assay, PDGFRa; assay type: biochemical; conditions: read-out: % Inhibition at 10 nM, PDGFRa
T7 construct: purchased Promega
Method: as §3, §4, §5

[15] = molecular target: T8, PDGFRb (Homo sapiens, UniProt P09619); assay: ADP-Glo kinase inhibitory assay, PDGFRb; assay type: biochemical; conditions: read-out: % Inhibition at 10 nM, PDGFRb
T8 construct: purchased Promega
Method: as §3, §4, §5

T6 sequence (P35968 20-1356): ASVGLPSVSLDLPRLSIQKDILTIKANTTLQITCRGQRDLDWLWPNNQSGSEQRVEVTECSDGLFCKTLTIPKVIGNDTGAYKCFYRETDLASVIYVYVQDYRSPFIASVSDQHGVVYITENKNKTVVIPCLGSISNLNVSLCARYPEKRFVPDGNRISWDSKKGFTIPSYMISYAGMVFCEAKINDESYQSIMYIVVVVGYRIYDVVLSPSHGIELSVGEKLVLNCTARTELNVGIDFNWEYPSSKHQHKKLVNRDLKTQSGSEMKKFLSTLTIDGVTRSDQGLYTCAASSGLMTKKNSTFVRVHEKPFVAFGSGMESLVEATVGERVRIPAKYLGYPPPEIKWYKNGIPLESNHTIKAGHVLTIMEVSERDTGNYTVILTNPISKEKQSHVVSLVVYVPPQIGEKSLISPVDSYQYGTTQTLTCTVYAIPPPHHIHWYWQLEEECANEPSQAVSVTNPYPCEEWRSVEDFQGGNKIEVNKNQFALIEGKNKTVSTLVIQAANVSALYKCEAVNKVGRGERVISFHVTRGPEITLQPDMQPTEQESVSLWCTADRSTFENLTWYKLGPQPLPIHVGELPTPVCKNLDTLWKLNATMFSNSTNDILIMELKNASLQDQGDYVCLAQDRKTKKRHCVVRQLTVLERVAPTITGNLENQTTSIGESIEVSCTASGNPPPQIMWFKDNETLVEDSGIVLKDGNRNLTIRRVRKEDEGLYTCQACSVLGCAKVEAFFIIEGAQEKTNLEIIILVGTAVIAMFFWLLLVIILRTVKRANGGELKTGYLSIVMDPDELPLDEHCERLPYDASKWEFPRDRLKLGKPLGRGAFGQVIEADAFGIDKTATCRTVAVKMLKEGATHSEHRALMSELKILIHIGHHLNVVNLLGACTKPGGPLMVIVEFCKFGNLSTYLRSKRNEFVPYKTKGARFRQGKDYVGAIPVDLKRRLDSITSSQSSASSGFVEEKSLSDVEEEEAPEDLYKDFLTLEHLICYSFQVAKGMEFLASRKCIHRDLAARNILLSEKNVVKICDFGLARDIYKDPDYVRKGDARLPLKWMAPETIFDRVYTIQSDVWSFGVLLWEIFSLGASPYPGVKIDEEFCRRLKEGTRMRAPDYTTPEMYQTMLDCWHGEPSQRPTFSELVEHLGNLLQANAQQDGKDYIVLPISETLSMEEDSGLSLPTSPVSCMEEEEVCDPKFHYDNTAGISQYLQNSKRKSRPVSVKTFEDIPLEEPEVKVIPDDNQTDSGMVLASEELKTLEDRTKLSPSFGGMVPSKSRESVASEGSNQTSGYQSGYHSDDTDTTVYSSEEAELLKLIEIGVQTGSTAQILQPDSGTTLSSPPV
T3 sequence (Q15303 26-1308): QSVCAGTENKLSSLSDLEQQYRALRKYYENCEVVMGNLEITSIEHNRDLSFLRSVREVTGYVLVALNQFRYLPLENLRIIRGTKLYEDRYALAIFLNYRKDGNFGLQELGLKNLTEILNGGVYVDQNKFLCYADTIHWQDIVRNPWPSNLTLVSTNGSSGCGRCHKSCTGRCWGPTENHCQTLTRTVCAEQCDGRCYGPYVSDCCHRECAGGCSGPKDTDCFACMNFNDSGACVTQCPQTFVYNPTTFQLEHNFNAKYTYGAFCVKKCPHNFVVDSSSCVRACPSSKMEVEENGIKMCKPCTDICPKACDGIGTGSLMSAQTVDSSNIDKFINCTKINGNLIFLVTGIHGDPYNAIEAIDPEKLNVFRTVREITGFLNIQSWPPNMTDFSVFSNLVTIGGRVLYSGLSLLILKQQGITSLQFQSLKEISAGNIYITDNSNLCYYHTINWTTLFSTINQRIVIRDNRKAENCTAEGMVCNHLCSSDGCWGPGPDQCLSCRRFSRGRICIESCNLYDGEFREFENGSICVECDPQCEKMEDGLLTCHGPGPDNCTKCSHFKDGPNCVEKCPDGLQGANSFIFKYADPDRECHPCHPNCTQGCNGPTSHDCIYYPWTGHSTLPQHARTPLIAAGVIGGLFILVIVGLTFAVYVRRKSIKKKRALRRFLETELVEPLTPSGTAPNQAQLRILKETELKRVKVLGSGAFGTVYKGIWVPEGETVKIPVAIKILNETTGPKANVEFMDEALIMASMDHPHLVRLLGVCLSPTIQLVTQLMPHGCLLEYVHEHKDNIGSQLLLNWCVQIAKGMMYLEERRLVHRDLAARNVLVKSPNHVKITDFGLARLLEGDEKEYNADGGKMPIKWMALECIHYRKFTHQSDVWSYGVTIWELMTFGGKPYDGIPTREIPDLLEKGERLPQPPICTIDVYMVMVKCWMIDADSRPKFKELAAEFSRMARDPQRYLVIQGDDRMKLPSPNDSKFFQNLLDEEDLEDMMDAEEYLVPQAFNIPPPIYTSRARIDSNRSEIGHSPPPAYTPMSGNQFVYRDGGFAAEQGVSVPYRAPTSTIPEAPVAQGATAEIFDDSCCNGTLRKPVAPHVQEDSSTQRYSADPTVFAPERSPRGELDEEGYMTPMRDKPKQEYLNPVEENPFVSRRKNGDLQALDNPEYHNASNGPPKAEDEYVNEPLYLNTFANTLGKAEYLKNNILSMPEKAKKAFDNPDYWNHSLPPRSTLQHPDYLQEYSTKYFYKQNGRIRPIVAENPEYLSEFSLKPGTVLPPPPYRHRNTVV
T8 sequence (P09619 33-1106): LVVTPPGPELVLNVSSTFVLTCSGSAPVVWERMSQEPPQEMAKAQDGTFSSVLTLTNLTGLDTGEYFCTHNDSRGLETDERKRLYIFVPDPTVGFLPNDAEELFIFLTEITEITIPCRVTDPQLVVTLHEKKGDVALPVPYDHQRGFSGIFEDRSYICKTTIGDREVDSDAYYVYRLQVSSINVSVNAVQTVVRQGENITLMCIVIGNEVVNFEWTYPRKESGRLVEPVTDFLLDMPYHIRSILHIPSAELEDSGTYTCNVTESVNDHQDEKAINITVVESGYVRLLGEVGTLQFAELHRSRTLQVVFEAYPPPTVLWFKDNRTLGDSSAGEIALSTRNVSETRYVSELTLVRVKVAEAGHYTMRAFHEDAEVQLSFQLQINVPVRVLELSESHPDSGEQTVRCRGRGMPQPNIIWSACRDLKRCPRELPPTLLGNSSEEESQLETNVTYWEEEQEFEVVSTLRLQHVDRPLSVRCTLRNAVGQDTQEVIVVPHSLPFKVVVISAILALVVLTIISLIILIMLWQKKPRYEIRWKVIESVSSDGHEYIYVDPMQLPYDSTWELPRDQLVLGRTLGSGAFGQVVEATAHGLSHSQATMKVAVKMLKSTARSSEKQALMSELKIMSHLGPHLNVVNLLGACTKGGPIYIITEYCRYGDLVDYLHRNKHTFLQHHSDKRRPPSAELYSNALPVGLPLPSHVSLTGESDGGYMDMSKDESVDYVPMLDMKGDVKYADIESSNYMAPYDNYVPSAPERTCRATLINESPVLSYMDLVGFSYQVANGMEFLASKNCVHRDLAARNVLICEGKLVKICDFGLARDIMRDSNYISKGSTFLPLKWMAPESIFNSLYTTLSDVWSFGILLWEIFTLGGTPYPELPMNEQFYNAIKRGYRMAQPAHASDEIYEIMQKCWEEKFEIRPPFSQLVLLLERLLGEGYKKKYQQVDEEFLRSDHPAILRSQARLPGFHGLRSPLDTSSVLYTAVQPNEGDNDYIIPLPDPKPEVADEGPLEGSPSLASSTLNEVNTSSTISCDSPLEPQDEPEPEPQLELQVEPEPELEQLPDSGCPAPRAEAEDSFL
T2 sequence (P04626 23-1255): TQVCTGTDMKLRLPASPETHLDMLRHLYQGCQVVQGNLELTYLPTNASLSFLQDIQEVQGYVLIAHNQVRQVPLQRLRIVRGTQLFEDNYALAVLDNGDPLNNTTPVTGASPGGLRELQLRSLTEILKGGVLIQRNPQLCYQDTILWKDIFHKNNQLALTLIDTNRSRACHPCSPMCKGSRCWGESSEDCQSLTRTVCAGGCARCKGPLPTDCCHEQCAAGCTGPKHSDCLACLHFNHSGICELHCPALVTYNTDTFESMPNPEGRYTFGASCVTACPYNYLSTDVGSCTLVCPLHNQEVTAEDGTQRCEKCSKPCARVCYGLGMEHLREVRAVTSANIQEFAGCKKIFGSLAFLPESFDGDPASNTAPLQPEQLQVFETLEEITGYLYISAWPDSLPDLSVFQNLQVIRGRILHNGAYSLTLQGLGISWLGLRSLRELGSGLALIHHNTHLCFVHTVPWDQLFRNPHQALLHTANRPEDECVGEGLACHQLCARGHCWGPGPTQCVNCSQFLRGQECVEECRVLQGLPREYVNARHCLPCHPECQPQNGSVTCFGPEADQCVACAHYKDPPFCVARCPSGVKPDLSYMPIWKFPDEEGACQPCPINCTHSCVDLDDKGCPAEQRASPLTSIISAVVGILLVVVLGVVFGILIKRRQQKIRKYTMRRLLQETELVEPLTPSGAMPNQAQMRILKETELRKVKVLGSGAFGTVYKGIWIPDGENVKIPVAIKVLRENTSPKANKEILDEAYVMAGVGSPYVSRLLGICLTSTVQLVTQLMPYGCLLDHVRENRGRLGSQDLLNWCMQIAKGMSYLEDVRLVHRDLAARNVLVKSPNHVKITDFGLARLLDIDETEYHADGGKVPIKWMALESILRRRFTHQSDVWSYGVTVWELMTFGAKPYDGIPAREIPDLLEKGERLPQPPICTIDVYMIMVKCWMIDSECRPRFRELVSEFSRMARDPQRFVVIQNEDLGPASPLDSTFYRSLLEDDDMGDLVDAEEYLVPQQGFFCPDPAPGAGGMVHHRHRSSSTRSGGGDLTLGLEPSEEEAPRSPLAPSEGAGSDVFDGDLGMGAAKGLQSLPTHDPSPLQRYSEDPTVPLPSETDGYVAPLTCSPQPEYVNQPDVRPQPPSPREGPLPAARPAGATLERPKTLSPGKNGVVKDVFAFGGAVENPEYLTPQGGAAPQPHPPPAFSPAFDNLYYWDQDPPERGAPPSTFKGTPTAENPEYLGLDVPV

SMILES: Cc1cn(-c2cc(NC(=O)c3ccc(CCl)cc3)cc(C(F)(F)F)c2)cn1 [Compound 5, 4-(Chloromethyl)-N-(3-(4-methyl-1H-imidazol-1-yl)-5-(trifluoromethyl)phenyl)benzamide]
IC50 [1]: 69 µM
IC50 ([2]; Homo sapiens, HL-60, 48 h): 45 µM
IC50 [3]: 54 µM
IC50 [4]: 51.8 µM
IC50 [5]: 53.5 µM
IC50 [6]: 70 µM
inhibition at 100 µM [7]: < 0.1%
inhibition at 0.01 µM [8]: 0%
inhibition at 0.01 µM [9]: 0%
inhibition at 0.01 µM [10]: 0%
inhibition at 0.01 µM [11]: 0%
selectivity for the gene insulin receptor, in words [12]: high selectivity
inhibition at 0.01 µM [12]: 57%
inhibition at 0.01 µM [13]: 0%
inhibition at 0.01 µM [14]: 0%
inhibition at 0.01 µM [15]: 0%

SMILES: CNC(=O)c1cc(Oc2ccc(NCc3ccc(C(=O)Nc4cc(-n5cnc(C)c5)cc(C(F)(F)F)c4)cc3)cc2)ccn1 [Compound 10, N-methyl-4-(4-((4-((3-(4-methyl-1H-imidazol-1-yl)-5-(trifluoromethyl)phenyl)carbamoyl)benzyl)amino)phenoxy)picolinamide]
IC50 [1]: 40 µM
IC50 ([2]; Homo sapiens, HL-60, 48 h): 8.2 µM
IC50 [3]: > 100 µM
IC50 [4]: > 100 µM
IC50 [5]: > 100 µM
IC50 [6]: 81 µM
inhibition at 100 µM [7]: 10.4%
inhibition at 0.01 µM [8]: 65%
inhibition at 0.01 µM [9]: 0%
inhibitory activity in relation to HER-4, in words [10]: comparable to imatinib
inhibition at 0.01 µM [10]: 51%
inhibition at 0.01 µM [11]: 0%
inhibition at 0.01 µM [12]: 46%
inhibition at 0.01 µM [13]: 27%
inhibition at 0.01 µM [14]: 66%
inhibition at 0.01 µM [15]: 0%
melting point: 153 to 156 °C

SMILES: Cc1cn(-c2cc(NC(=O)c3ccc(CNc4cccc(C(F)(F)F)c4)cc3)cc(C(F)(F)F)c2)cn1 [Compound 11, N-(3-(4-methyl-1H-imidazol-1-yl)-5-(trifluoromethyl)phenyl)-4-(((3-(trifluoromethyl)phenyl)amino)methyl)benzamide]
IC50 [1]: 53 µM
IC50 ([2]; Homo sapiens, HL-60, 48 h): 51 µM
IC50 [3]: 57 µM
IC50 [4]: 54 µM
IC50 [5]: 61 µM
IC50 [6]: 54.3 µM
inhibition at 100 µM [7]: 15.5%
inhibition at 0.01 µM [8]: 91%
inhibition at 0.01 µM [9]: 0%
inhibitory activity in relation to HER-4, in words [10]: comparable to imatinib
inhibition at 0.01 µM [10]: 49%
inhibition at 0.01 µM [11]: 0%
inhibition at 0.01 µM [12]: 0%
inhibition at 0.01 µM [13]: 16%
inhibition at 0.01 µM [14]: 55%
inhibition at 0.01 µM [15]: 0%
melting point: 83 to 85 °C

SMILES: Cc1cn(-c2cc(NCc3ccc(C(=O)Nc4cccc(C(F)(F)F)c4)cc3)cc(C(F)(F)F)c2)cn1 [Compound 13, 4-({[3-(4-Methyl-1H-imidazol-1-yl)-5-(trifluoromethyl)phenyl]amino}methyl)-N-[3-(trifluoromethyl)phenyl]benzamide]
IC50 [1]: 5.6 µM
IC50 ([2]; Homo sapiens, HL-60, 48 h): 46 µM
IC50 [3]: 69 µM
IC50 [4]: 57.5 µM
IC50 [5]: 55 µM
IC50 [6]: 52 µM
inhibition at 100 µM [7]: 9.36%
inhibition at 0.01 µM [8]: 92%
inhibition at 0.01 µM [9]: 34%
inhibitory activity in relation to HER-4, in words [10]: comparable to imatinib
inhibition at 0.01 µM [10]: 54%
inhibition at 0.01 µM [11]: 0%
inhibition at 0.01 µM [12]: 0%
inhibition at 0.01 µM [13]: 20%
inhibition at 0.01 µM [14]: 59%
inhibition at 0.01 µM [15]: 8%
melting point: 129 to 131 °C

Now from value to compound, other results behind:

IC50 [1]: 31 µM
IC50 ([2]; 48 h): 5.8 µM
IC50 ([2]; Homo sapiens, HL-60, 48 h): 5.6 µM
IC50 [3]: > 100 µM
IC50 [4]: 78.5 µM
IC50 [5]: 73 µM
IC50 [6]: > 100 µM
inhibition at 0.01 µM [8]: 0%
inhibition at 0.01 µM [9]: 0%
inhibition at 0.01 µM [10]: 0%
inhibition at 0.01 µM [11]: 0%
selectivity for the gene insulin receptor, in words [12]: high selectivity
inhibition at 0.01 µM [12]: 43%
inhibition at 0.01 µM [13]: 0%
inhibition at 0.01 µM [14]: 0%
inhibition at 0.01 µM [15]: 0%
melting point: 205 to 208 °C
SMILES: Cc1cn(-c2cc(NCc3ccc(C(=O)Nc4cc([N+](=O)[O-])ccc4C)cc3)cc(C(F)(F)F)c2)cn1 [Compound 15, 4-({[3-(4-Methyl-1H-imidazol-1-yl)-5-(trifluoromethyl)phenyl]amino}methyl)-N-{[(2-methyl-5-nitrophenyl) benzoate]
inhibition at 100 µM [7]: 15.9%

IC50 [1]: 30.7 µM
IC50 ([2]; Homo sapiens, HL-60, 48 h): 38 µM
IC50 [3]: 63 µM
IC50 [4]: 11.5 µM
IC50 [5]: > 100 µM
IC50 [6]: 78 µM
inhibition at 0.01 µM [8]: 0%
inhibition at 0.01 µM [9]: 0%
inhibition at 0.01 µM [10]: 0%
inhibition at 0.01 µM [11]: 3%
selectivity for the gene insulin receptor, in words [12]: high selectivity
inhibition at 0.01 µM [12]: 52%
inhibition at 0.01 µM [13]: 0%
inhibition at 0.01 µM [14]: 0%
inhibition at 0.01 µM [15]: 0%
melting point: 98 to 102 °C
SMILES: COc1ccc(C(=O)N2CCN(Cc3ccc(C(=O)Nc4cc(-n5cnc(C)c5)cc(C(F)(F)F)c4)cc3)CC2)cc1 [Compound 28i, 4-{[4-(4-Methoxybenzoyl)piperazin-1-yl]methyl}-N-[3-(4-methyl-1H-imidazol-1-yl)-5-(trifluoromethyl)phenyl]benzamide]
inhibition at 100 µM [7]: 6.32%
